Experimental data: publication PMC12198407, “Preclinical and first-in-human of purinostat mesylate, a novel selective HDAC I/IIb inhibitor, in relapsed/refractory multiple myeloma and lymphoma” (Signal Transduction and Targeted Therapy, 2025)
Where “and” joins values, the source holds several entries; their conditions need not be identical. Identical values can stand only once. Like-named read-outs stand apart in the source and are kept apart here.

Legend:
[1] = system: human multiple myeloma RPMI-8226; format: in vivo
MM1S xenograft = MM1S xenograft mouse model; format: in vivo, NOD-SCID mice; conditions: for median survival time: satellite group, death = tumor 1500 mm³
r/r MM and r/r lymphoma = assay: Phase I trial NCT05526313, efficacy assessment; format: in vivo, human
Procedure: This open-label, non-randomized, first-in-human phase I dose-escalation two-center trial enrolled adult patients with lymphoma or MM who were refractory or relapsed after ≥1 prior regimen (NCT05526313). All patients provided written informed consent, and the study was conducted in accordance with the principles of the Declaration of Helsinki. PM was administered by 30-min intravenous infusion in a standard 3 + 3 dose escalation design, starting from 1.2, 2.4, 4.0, 6.0, 8.4, 11.2, up to 15 mg/m^2. This trial was conducted in three sequential stages as follows: the first stage as a single dose (day 1), the second stage as multiple doses (day 8, 11, and 15), and the third stage as extended doses (day 1, 4, 8, 11 in 21-day cycles). The decision to proceed to the third stage is based on the patient’s continued benefit from the previous two stages. Patients continued to receive PM until unacceptable toxicity or disease progression. Between August 2020 and August 2022, 11 r/r MM and 18 r/r lymphoma patients were enrolled. The cutoff date for the assessment of safety and efficacy was July 7, 2023. The incidence and severity of adverse events were assessed according to the National Cancer Institute Common Terminology Criteria for Adverse Events (CTCAE 5.0). The efficacy of PM in patients with r/r MM was evaluated according to the standards of the Chinese Multiple Myeloma Diagnosis and Treatment Guidelines (2017 Revised) and the 2016 International Myeloma Working Group (IMWG). Minimal response (MR) (only for the evaluation of r/r MM): serum M protein decreased by 25–49% and 24 h light chain decreased by 50–89%. If soft tissue plasmacytoma exists at baseline, the sum of the product of perpendicular diameters (SPD) of measurable lesions is required to be reduced by ≥50%.[56],[57] The number and size of osteolytic lesions have not increased (compression fractures are allowed). […] Detailed methods for pharmacodynamic studies, safety and tolerability assessments (including the definition of DLT and maximum tolerated dose), and efficacy assessment are provided in Supplementary Methods.
Disease response of patients was measured according to the Chinese Multiple Myeloma Diagnosis and Treatment Guidelines (2017 Revised) and the 2016 International Myeloma Working Group (IMWG) for multiple myeloma or the International Working Group consensus response evaluation criteria in lymphoma (RECIL 2017). Patients need to be evaluated for efficacy after completing the cycle 1 of PM treatment (single and multiple dosing phases, day 25) and every 2 treatment cycles during the extended dosing phase. For r/r multiple myeloma, the efficacy was evaluated by quantification of M protein immunofixation electrophoresis of serum and urine. For r/r lymphoma, if sites with available positron emission tomography (PET) imaging, tumor volume was quantified by PET computed tomography (CT), and if sites where PET was not available, CT or magnetic resonance imaging was used. Objective response rate (ORR)=CR+PR+MR, and disease control rate (DCR)=CR+PR+MR+SD, and calculate their 95% confidence interval using the Clopper-Pearson method. The efficacy assessable population was determined to include all patients who were administered at least one dose of PM and had undergone at least one tumor assessment after the baseline.

Raji-luc = assay: Luciferase substrate viability assay; format: cell-based, human
[2] = Pharmacokinetics, intravenous; format: in vivo, Beagle dogs; conditions: both sexes, Beagle, dog, plasma; for Vd: read-out: Vdss; for clearance: read-out: plasma clearance (CL)
Procedure: The elimination half-lives (T1/2) were 4.49 ± 0.669, 7.05 ± 3.07, and 8.47 ± 1.26 hours, respectively. The area under the plasma concentration-time curve from time zero to the last quantifiable time point (AUC0-last) was 75.1 ± 18.3, 238 ± 63.1, and 713 ± 122 h•ng/mL, respectively.

[3] = Safety pharmacology, ECG and blood pressure; format: in vivo, Beagle dogs; conditions: 3.6 mg/kg i.v.
Procedure: In the 1.2 and 3.6 mg/kg groups, transient increases in heart rate were observed, and in the 3.6 mg/kg group, a transient and reversible prolongation of QT interval (9.6%) was also noted. Additionally, there were no significant effects observed on other qualitative and quantitative ECG parameters or blood pressure in the dogs. […] In the 90 mg/kg group, reduced locomotor activity and decreased standing frequency were also observed, but these effects returned to baseline after 24 hours. No significant effects were noted on other neurological behaviors in rats, and no impacts on the respiratory system were observed.

[4] = by row: r4 MM, r5 DLBCL, r6 FL, r7 other lymphomas, r8 total

## CN(Cc1nc2c(N3CCOCC3)nc(-c3ccc(N)cc3)nc2n1C)c1ncc(C(=O)NO)cn1.CS(=O)(=O)O [PM, 2-(((2-(4-Aminophenyl)-9-methyl-6-(4-morpholinyl)-9H-purine-8-yl)methyl)methylamino)-N-hydroxy-5-pyrimidine-carboxamide Mesylate]
[1]; 1.25 mg/kg
  T/C: 13.9%
  tumor inhibition rate: 81.61%
[1]; 2.5 mg/kg
  T/C: 6.6%
  tumor inhibition rate: 92.33%
[1]; 5 mg/kg
  T/C: 2.7%
  tumor inhibition rate: 97.77%
[1]; 10 mg/kg
  T/C: 2.2%
  tumor inhibition rate: 97.77%
[1]; satellite groups, PM 5 mg/kg alone or combined, control regimens
  median survival time: 67.5 days
MM1S xenograft; 2.5 mg/kg
  relative tumor growth rate T/C: 49.9%
MM1S xenograft; 2.5 mg/kg i.v. three times a week
  tumor inhibition rate: 55.67%
MM1S xenograft; 5 mg/kg
  relative tumor growth rate T/C: 32.0%
  median survival time: 29.0 days
MM1S xenograft; 5 mg/kg i.v. three times a week
  tumor inhibition rate: 64.39%
MM1S xenograft; 10 mg/kg
  relative tumor growth rate T/C: 21.8%
  median survival time: 34.5 days
MM1S xenograft; 10 mg/kg i.v. three times a week
  tumor inhibition rate: 71.76%
MM1S xenograft; 20 mg/kg
  relative tumor growth rate T/C: 18.3%
MM1S xenograft; 20 mg/kg i.v. three times a week
  tumor inhibition rate: 76.44%
r/r MM and r/r lymphoma; DLBCL, n=11
  DCR: 72.7%
r/r MM and r/r lymphoma; FL patient with multiple extranodal lesions
  duration of PR: more than 10 cycles
r/r MM and r/r lymphoma; FL, n=3
  DCR: 66.7%
  ORR: 66.7%
r/r MM and r/r lymphoma; Patient No.10, 6.0 mg/m²
  duration of MR: more than 6 months
r/r MM and r/r lymphoma; Patient No.10, 6.0 mg/m², baseline 26.290 g/L
  M-protein after 2 cycles: 15.998 g/L
r/r MM and r/r lymphoma; [4]
  Best Response CR: 6(54.5) n (%) and 6(20.7) n (%)
  Best Response MR: 1(33.3) n (%)
  Best Response PD: 1(33.3) n (%)
  Best Response PR: 1(33.3) n (%)
  Best Response SD: 10(34.5) n (%)
r/r MM and r/r lymphoma; other lymphomas, n=4
  DCR: 100%
  ORR: 50.0%
r/r MM and r/r lymphoma; r/r DEL DLBCL patient with MYD88 mutation
  duration of CR: over 18 months
r/r MM and r/r lymphoma; r/r DEL patient No.26
  duration of CR: more than 1.5 years
r/r MM and r/r lymphoma; r/r DLBCL
  Response (%): CR: 54.5%
r/r MM and r/r lymphoma; r/r DLBCL, n=11
  ORR: 63.6%
  number of complete responses: 6
  number of partial responses: 1
r/r MM and r/r lymphoma; r/r MM, n=11
  DCR: 72.7%
r/r MM and r/r lymphoma; r/r MM, n=11, 1.2–8.4 mg/m^2
  ORR: 9.1% and 9.09%
r/r MM and r/r lymphoma; r/r lymphoma, n=18, 4.0–15.0 mg/m^2
  ORR: 61.1%
r/r MM and r/r lymphoma; total, n=29
  DCR: 75.9%
  ORR: 41.4%
Raji-luc
  time until effect detectable: 36 h
[2]; 0.3 mg/kg
  AUC(0-t): 75.1 ± 18.3 ng·h/mL
  Vd: 3.69 ± 0.957 L/kg
  clearance: 68.4 ± 13.2 mL/min/kg
[2]; 0.3 mg/kg single i.v.
  Cmax: 130 ± 35.5 ng/mL
[2]; 0.3 mg/kg, read-out: T1/2 (converted)
  half-life: 4.49 ± 0.669 h
[2]; 1 mg/kg
  AUC(0-t): 238 ± 63.1 ng·h/mL
  Vd: 3.85 ± 1.8 L/kg
  clearance: 73.4 ± 17.9 mL/min/kg
[2]; 1 mg/kg single i.v.
  Cmax: 411 ± 162 ng/mL
[2]; 1 mg/kg, read-out: T1/2 (converted)
  half-life: 7.05 ± 3.07 h
[2]; 3 mg/kg
  AUC(0-t): 713 ± 122 ng·h/mL
  Vd: 2.89 ± 0.605 L/kg
  clearance: 71.5 ± 11.6 mL/min/kg
[2]; 3 mg/kg single i.v.
  Cmax: 1230 ± 166 ng/mL
[2]; 3 mg/kg, read-out: T1/2 (converted)
  half-life: 8.47 ± 1.26 h
[2]; single i.v., range over doses, read-out: half-life
  half-life: 4.49 to 8.47 h
[3]
  prolongation of QT interval, transient and reversible: 9.6%
